These results are taken from patent publication US5164296A, “Assay methods involving ouabain” (priority 1990, dated 1992).

Read-outs that look alike come from different tables or passages of the source. Ends that are not written are not given here.

Assay [1] has as its system polyclonal anti-ouabain antisera. Format: binding, rabbit. As for the experimental part:
Polyclonal anti-ouabain antisera was obtained from the immunized rabbits by collecting blood from the central ear artery, allowing the blood to clot for 2 hr at room temperature, centrifuging the clotted blood at 1000 ×g for 10 min, and removing the polyclonal anti-ouabain antisera.
The polyclonal antisera was extensively characterized by testing the degree to which it cross-reacted with (1) other substances known to be present in human body fluids and tissues, and (2) cardiotonic steroids closely related to ouabain but not known to be present in human body fluids and tissues.

Assay [2] concerns the target T1, (Na^+ +K^+)ATPase (Canis lupus familiaris, UniProt P50997).
T1 construct: (Na^+ +K^+)ATPase was purified from the outer medulla of dog kidney; from tissue; host or cells: dog kidney outer medulla, purified membrane enzyme
Description: Competition for ^3 H-ouabain binding to purified (Na^+ +K^+)ATPase. Set-up: species or system dog. The settings on record: type II conditions. As for the experimental part: (§1) More specifically, (Na^+ +K^+)ATPase was purified from the outer medulla of dog kidney using the angle rotor procedure (Jorgensen, P.L., Biochim. Biophys. Acta, 356:36-52 (1974)) and stored frozen at -60° C. at 1.0 mg/ml in 25 mM imidazole-HCl (pH 7.5) and 1.0 mM EDTA, in small aliquots. (Na^+ +K^+)ATPase activity was determined at 37° C. from rate measurements in 1.0 ml of coupled optical assay mixture comprising 20 mM KCl, 100 mM NaCl, 4.5 mM MgSO4, 5.0 mM EGTA, 3.0 mM ATP-Na2, 1.2 mM phosphoenol-pyruvate-tricyclohexylammonium, 0.3 mM NADH, 100 mM TES-Tris (ph 7.4), 5.0 units of lactate dehydrogenase, and 5.0 units of pyruvate kinase (Hamlyn, J.M. et al, Nature, 300:650-652 (1982)). (Na^+ +K^+)ATPase activity was 99% ouabain-inhibitable with activities of 10-18 μmol/min/mg of membrane protein. Maximally effective concentrations of digitalis-like activity had no effect on the enzymatic components of the coupled optical assay as determined by inspection of rates in response to addition of 20-50 μM ADP. The maximal capacity of the coupled optical assay was at least 500-2000 fold greater than the typical maximal hydrolytic rate of the (Na^+ +K^+)ATPase and was not rate limiting under any assay condition described herein.
Competition for ^3 H-ouabain (Amersham Corp. or DuPont-New England Nuclear) binding was carried out in 670 μl of binding buffer comprising, in final concentrations, 10 mM TES-Tris (pH 7.4), 0.5 mM EDTA, 5.0 mM MgCl2 and 5.0 mM Na2 HPO4 (hereinafter "binding buffer") and 50 nM ouabain containing ^3 H-ouabain tracer, and including the unknown sample. Binding was initiated by addition of 0.1-2 μg of purified (Na^+ +K^+)ATPase and the reaction performed for 2 hr at 37° C. […] Trapped ^3 H-ouabain was determined by scintillation counting, following 12 hr of soaking the filters in 4.0 ml of Beckman Ready Protein ™ scintillation cocktail (Beckman, Palo Alto, Calif.). […] All binding data were corrected for quench, and specific binding was expressed as pmol/mg of enzyme protein. […]

Assay [3] has as its system left atria from guinea pigs. The experiment in a line: Inotropic properties in left atria from guinea pigs. Also noted: species or system guinea pig. As for the experimental part: Atria were incubated at 37° C. in phosphate buffered saline comprising 130 mM NaCl, 5.4 mM KCl, 1.8 mM MgCl2, 0.4 mM NaH2 PO4, 19 mM NaHCO3 and 5.4 g of glucose (pH 7.3-7.4), and gassed with 95% O2 /5% CO2. Tissues were stimulated at 1 Hz with twice threshold square pulses (0.8 to 1.0 V) of 0.7 to 1.2 msec duration. Resting tension was optimized for maximum isometric force generation. Control records were obtained once the phasic force was stabilized. […] For comparison, 200 nM plant ouabain evoked an inotropic response of 311±41% (N=4 experiments) which returned to normal with a half-time of approximately 5 min upon washout.

Assay [4] deals with T1, (Na^+ +K^+)ATPase. Description: Inhibition of (Na^+ +K^+)ATPase activity (coupled optical assay). Format: biochemical, dog. To be noted: purified dog kidney enzyme, 37° C. As for the experimental part: as §1
The inhibition of (Na^+ +K^+)ATPase was carried out as described above.

Assay [5] has as its system rings of aorta from guinea pigs. The experiment in a line: Vasoactive properties in rings of aorta from guinea pigs. Set-up: species or system guinea pig. As for the experimental part: The aortic rings were incubated at 37° C. in phosphate buffered saline. The rings were submaximally contracted for 3 to 7 min, every 35 min, with 0.2 or 1.0 μM histamine. […] The apparent half-time for washout of the augmented tension response in the presence of plant ouabain was also much greater than 60 min.

Setting [6] is: Table 1, polyclonal anti-ouabain antisera.

`C[C@]12CCC(=O)C=C1CC[C@@H]1[C@@H]2[C@@H](O)C[C@]2(C=O)[C@@H](C(=O)CO)CC[C@@H]12` [Aldosterone]: the “cross-reactivity (relative to ouabain)” value in assay [1] (setting [6]) was found to be 0.012%. On to `NC(=O)CC[C@@H]1NC(=O)[C@H](Cc2ccccc2)NC(=O)[C@H](Cc2ccc(O)cc2)NC(=O)[C@@H](N)CSSC[C@@H](C(=O)N2CCC[C@H]2C(=O)N[C@@H](CCCN=C(N)N)C(=O)NCC(N)=O)NC(=O)[C@H](CC(N)=O)NC1=O` [Arginine vasopressin], for which, in assay [1] (setting [6]), the “cross-reactivity (relative to ouabain)” value was “None detected”. Still for that read-out and setting: the same measure for `CC(=O)O[C@]1(C(C)=O)CC[C@H]2[C@@H]3C=C(Cl)C4=CC(=O)CC[C@]4(C)[C@H]3CC[C@@]21C` [Chlormadinone acetate]: “None detected”; for `CC(C)CCC[C@@H](C)[C@H]1CC[C@H]2[C@@H]3CC=C4C[C@@H](O)CC[C@]4(C)[C@H]3CC[C@]12C` [Cholesterol]: “None detected”. The same measure, in the same setting: as for `O=C(O)CC(O)(CC(=O)O)C(=O)O` [Citrate], the entry is “None detected”.

Consider `C[C@]12C[C@H](O)[C@H]3[C@@H](CCC4=CC(=O)CC[C@@]43C)[C@@H]1CC[C@@H]2C(=O)CO` [Corticosterone], for which, in assay [1] (setting [6]), the “cross-reactivity (relative to ouabain)” value was 0.0035%. Still for that read-out and setting: the same measure for `C[C@]12CC[C@H](OS(=O)(=O)O)CC1=CC[C@@H]1[C@@H]2CC[C@]2(C)C(=O)CC[C@@H]12` [Dehydroisoandrosterone-3-sulfate]: “None detected”. In the case of `C[C@]12CC[C@H](O)CC1=CC[C@@H]1[C@@H]2CC[C@]2(C)C(=O)CC[C@@H]12` [Dehydroisoandrosterone], the “cross-reactivity (relative to ouabain)” value in assay [1] (setting [6]) is “None detected”.

With `C[C@]12CC[C@H]3[C@@H](CCC4=CC(=O)CC[C@@]43C)[C@@H]1CC[C@@H]2C(=O)CO` [Deoxycorticosterone], the “cross-reactivity (relative to ouabain)” value in assay [1] (setting [6]) is reported as 0.0046%.

`C[C@H]1O[C@@H](O[C@H]2[C@@H](O)C[C@H](O[C@H]3[C@@H](O)C[C@H](O[C@H]4CC[C@@]5(C)[C@H](CC[C@@H]6[C@@H]5CC[C@]5(C)[C@@H](C7=CC(=O)OC7)CC[C@]65O)C4)O[C@@H]3C)O[C@@H]2C)C[C@H](O)[C@@H]1O` [Digitoxin]: the “cross-reactivity (relative to ouabain)” value in assay [1] (setting [6]) was 28%. Same read-out and setting: the same measure for `C[C@H]1O[C@@H](O[C@H]2[C@@H](O)C[C@H](O[C@H]3[C@@H](O)C[C@H](O[C@H]4CC[C@@]5(C)[C@H](CC[C@@H]6[C@@H]5C[C@@H](O)[C@]5(C)[C@@H](C7=CC(=O)OC7)CC[C@]65O)C4)O[C@@H]3C)O[C@@H]2C)C[C@H](O)[C@@H]1O` [Digoxin]: 5.2%; for `C[C@@H]1O[C@@H](O[C@H]2C[C@@H](O)[C@]3(CO)[C@H]4[C@H](O)C[C@]5(C)[C@@H](C6COC(=O)C6)CC[C@]5(O)[C@@H]4CC[C@]3(O)C2)[C@H](O)[C@H](O)[C@H]1O` (stereo partly drawn) [Dihydroouabain]: 0.16%. Same read-out and setting: the same measure for `C[C@]12CCC(=O)C=C1CC[C@@H]1[C@@H]2[C@@H](O)C[C@@]2(C)[C@H]1CC[C@]2(O)C(=O)CO` [Hydrocortisone]: “None detected”. Still for that read-out and setting: the same measure for `CC(=O)O[C@H]1C[C@H](O[C@H]2[C@@H](O)C[C@H](O[C@H]3[C@@H](O)C[C@H](O[C@H]4CC[C@@]5(C)[C@H](CC[C@@H]6[C@@H]5C[C@@H](O)[C@]5(C)[C@@H](C7=CC(=O)OC7)CC[C@]65O)C4)O[C@@H]3C)O[C@@H]2C)O[C@H](C)[C@H]1O[C@@H]1O[C@H](CO)[C@@H](O)[C@H](O)[C@H]1O` [Lanatoside C]: 2.49%; for `C[C@]12C[C@@H](O)[C@H]3[C@@H](CC[C@]4(O)C[C@@H](O)C[C@@H](O)[C@]34CO)[C@@]1(O)CC[C@@H]2C1=CC(=O)OC1` [Ouabagenin]: 40%; for `CC(=O)[C@H]1CC[C@H]2[C@@H]3CCC4=CC(=O)CC[C@]4(C)[C@H]3CC[C@]12C` [Progesterone]: 0.0011%. For the molecule `C[C@]12CC[C@H]3[C@@H](CC[C@]4(O)C[C@@H](O)CC[C@]34C=O)[C@@]1(O)CC[C@@H]2C1=CC(=O)OC1` [Strophanthidin], the “cross-reactivity (relative to ouabain)” value in assay [1] (setting [6]) is 66%. Turning to `C[C@]12CC[C@H]3[C@@H](CCC4=CC(=O)CC[C@@]43C)[C@@H]1CC[C@@H]2O` [Testosterone], the “cross-reactivity (relative to ouabain)” value in assay [1] (Table 1, printed without unit) was 0.0042. `C[C@@H]1O[C@@H](O[C@H]2C[C@@H](O)[C@]3(CO)[C@H]4[C@H](O)C[C@]5(C)[C@@H](C6=CC(=O)OC6)CC[C@]5(O)[C@@H]4CC[C@]3(O)C2)[C@H](O)[C@H](O)[C@H]1O` [^3 H-ouabain]: the “^3 H-ouabain bound (typical values)” value on (Na^+ +K^+)ATPase [2] was 75-85 pmol/mg of enzyme protein. As to `C[C@@H]1O[C@@H](O[C@H]2C[C@@H](O)[C@]3(CO)[C@H]4[C@H](O)C[C@]5(C)[C@@H](C6=CC(=O)OC6)CC[C@]5(O)[C@@H]4CC[C@]3(O)C2)[C@H](O)[C@H](O)[C@H]1O` [ouabain], the activation at 0.2 µM in assay [3] (Cavia porcellus, read-out: inotropic response) is 311 ± 41%. For the same molecule, the “apparent half-time for washout of the inotropic response” value in assay [3] (upon washout) is reported as “approximately 5 min”. Also, on (Na^+ +K^+)ATPase [4], the “(Na^+ +K^+)ATPase activity ouabain-inhibitable” value amounted to 99%. For the same molecule, in assay [5] (170 nM human ouabain, 200 nM plant ouabain), the “effect on baseline tension” value is reported as “did not affect baseline tension”. In addition, the activity at 0.2 µM in assay [5] (Cavia porcellus, read-out: histamine-evoked tension, % of control) turned out to be 146 ± 16%. Also, the “apparent half-time for washout of the augmented tension response” value in assay [5] (upon washout) is given as “greater than 60 min”.

With `C[C@]12CC[C@@H]3c4ccc(O)cc4CC[C@H]3[C@@H]1CC[C@@H]2O` [β-estradiol], the “cross-reactivity (relative to ouabain)” value in assay [1] (setting [6]) is “None detected”.

Consider “Angiotensin I (DRVYIHPFHL; Angiotensin-1; UniProt P01019 25-34, looked up)”, for which the “cross-reactivity (relative to ouabain)” value in assay [1] (setting [6]) is listed as “None detected”. The same measure, in the same setting: the same measure for Angiotensin II: “None detected”; for “Atrial natriuretic peptide (SLRRSSCFGGRMDRIGAQSGLGCNSFRY; ends and bridges not checked; cysteine pairing not given here; UniProt P01160 124-151, looked up)”: “None detected”.

B1: Renin (protein, UniProt P00797 67-406, looked up)
Renin: LTLGNTTSSVILTNYMDTQYYGEIGIGTPPQTFKVVFDTGSSNVWVPSSKCSRLYTACVYHKLFDASDSSSYKHNGTELTLRYSTGTVSGFLSQDIITVGGITVTQMFGEVTEMPALPFMLAEFDGVVGMGFIEQAIGRVTPIFDNIISQGVLKEDVFSFYYNRDSENSQSLGGQIVLGGSDPQHYEGNFHYINLIKTGVWQIQMKGVSVGSSTLLCEDGCLALVDTGASYISGSTSSIEKLMEALGAKKRLFDYVVKCNEGPTLPDISFHLGGKEYTLTSADYVFQESYSSKKLCTLAIHAMDIPPPTGPTWALGATFIRKFYTEFDRRNNRIGFALAR
As for B1, in assay [1] (setting [6]), the “cross-reactivity (relative to ouabain)” value is “None detected”.
